Measured values from patent publication US20250236614A1, “BICYCLIC TETRAHYDROAZEPINE DERIVATIVES” (Hoffmann-La Roche Inc., priority 2022, published 2025).
pEC50, pIC50: −log10 of the molar value.

Columns and labels:
[1] = system: primary human T-cells; assay: T-cell proliferation assay (CellTiter-Glo); assay type: cell-based; details: Homo sapiens, T-cell, 120 h, isomer A; for pEC50: CD3 antibody-stimulated T-cells, CellTiter-Glo after 5 days, read-out: Tcell Proliferation CD3 EC50; for Emax: CD3 condition, 5 days, 20 μM reference compound A1 = 100%, DMSO neutral control, read-out: Emax proliferation (% activation)
Description: Expanded primary human T-cells are thawed and cultured in RPMI 1640 (Gibco, #61870-010)+5% human serum (HS, Sigma, #H3667)+1 mM Sodium Pyruvate (Gibco, #11360-039)+50 μM 2-mercaptoethanol (Gibco, #31350-010) and 1× Pen-Strep (Life Technologies, #15140122) medium at density of 2 Mio/ml for 3 hours in 5% CO2, 37° C. and 95% humidity. For coating of plates, PBS++ only or PBS++ with CD3 antibody (concentration depending on donor and determined by CD3 titrations) is added 100 μl/well to Poly-D Lysine coated 96-well plates. Plates are sealed and incubated at room temperature for 3 hours on a table-top rocking platform. After incubation, plates are washed once with PBS−− and filled with 40 μl/well culture medium only. Compounds are then added (see next section) to medium only plates. After 3 hours of culturing the T-cells, cells are filtered through a cell strainer (Miltenyi Biotech, #130-041-407), counted again and concentration is adjusted to 1.25 Mio/ml.
Cells are then seeded 80 μl/well to the 40 μl/well including dispensed compounds according to plate layout. By adding cells, compounds are further diluted 1:3, and resulting in 100k cells/120 μl/well. After 48 hours 40 μl of supernatant is collected carefully from the top while not disturbing the cells. Cells are assessed for proliferation 5 days later by measuring […] using CellTiterGlo (Promega).
Compounds were added in a 5 or 6 pt dose response with the Tecan D300e Digital Dispenser, all conditions 3 times more concentrated than the end-concentration, since cells are added afterwards (80 μl cells to 40 μl prepared medium with treatment). The DR was starting at 20 μM or 10 μM final top concentration and a dilution factor of 3.333. The positive control was the reference compound A1 that was added in a dose response as well, additionally to 3 wells of only 20 μM representing the positive stimulator control. All wells were normalized with DMSO to a final concentration of 0.6% (0.2% end-concentration).
After 5 days, for detection of ATP which is directly proportional to the number of cells present per well, the CellTiter-Glo® 2.0 Reagent is used. After visual control for toxicity or precipitations of the tested compounds, the plates are equilibrated to room temperature for 45 minutes. CellTiter-Glo® 2.0 Reagent is equilibrated to room temperature as well. After equilibration, an equal amount of CellTiter-Glo reagent is added to the cells (80 μl/well) with an electronic multichannel pipette. Plates are placed on a rocking platform for 15 minutes at room temperature. After incubation, the bottom of the plates is sealed with backing tape. Luminescence is measured with PHERAstar FSX (interval time 0.5 sec, gain 3000, focal height 15 mm) and exported as CSV file for analysis in Genedata screener.
CD3 and PBS plates were analysed separately in Genedata Screener using Roche Normalization PCT_POS_CTRL with DMSO set as Neutral Control and 20 μM of the reference compound A1 set as Stimulator Control/100%.
For CD3 conditions EC50 and Emax of the fitted sigmoidal curve were reported. If no curve could be fitted, the EC50 was reported as blank field and the Emax was based on individual data points. […] Compounds which activate unstimulated cells (see IL2 measurements) or compounds which negatively affected viability were flagged.

[2] = target: T1, hDGKalpha(1-735)-N-His (DGKA) (Homo sapiens, UniProt P23743); assay: In vitro DGK inhibition assay (ADP-Glo, in house), DGK alpha; assay type: biochemical; details: isomer A; 4 nM DGK α, 25 μM ATP, 125 μM DLG in liposomes, 1 hour reaction; read-out: DGKalpha ADP Glo assay IC50
T1 construct: hDGKalpha(1-735)-N-His; His (N)
T1 sequence (P23743 whole entry): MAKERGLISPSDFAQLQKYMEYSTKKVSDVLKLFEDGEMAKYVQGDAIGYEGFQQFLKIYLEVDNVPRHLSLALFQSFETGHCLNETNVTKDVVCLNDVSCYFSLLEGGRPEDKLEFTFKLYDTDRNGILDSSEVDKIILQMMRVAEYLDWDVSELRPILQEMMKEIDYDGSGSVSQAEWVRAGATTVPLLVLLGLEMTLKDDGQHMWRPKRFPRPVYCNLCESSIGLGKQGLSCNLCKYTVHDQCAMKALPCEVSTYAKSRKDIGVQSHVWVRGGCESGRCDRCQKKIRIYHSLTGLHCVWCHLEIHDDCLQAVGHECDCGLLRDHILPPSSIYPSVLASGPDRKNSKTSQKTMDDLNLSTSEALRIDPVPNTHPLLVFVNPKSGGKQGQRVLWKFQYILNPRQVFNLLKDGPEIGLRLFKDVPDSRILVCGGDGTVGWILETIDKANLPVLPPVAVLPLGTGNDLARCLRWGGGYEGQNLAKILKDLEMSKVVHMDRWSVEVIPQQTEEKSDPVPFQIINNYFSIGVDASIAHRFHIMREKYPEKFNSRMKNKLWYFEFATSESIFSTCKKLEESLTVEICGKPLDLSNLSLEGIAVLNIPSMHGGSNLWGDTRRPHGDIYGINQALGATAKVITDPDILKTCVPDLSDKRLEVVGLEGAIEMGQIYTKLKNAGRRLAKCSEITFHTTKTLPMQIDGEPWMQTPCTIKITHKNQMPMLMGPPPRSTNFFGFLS
Description: (§1) DGK α and ζ kinase use ATP to phosphorylate the substrate 1,2-dilauroyl-sn-glycerol (DLG, incorporated in the liposomes). ATP is converted to ADP as a result of this enzymatic reaction.
(§2) After the kinase reaction, an ATP-depletion reagent is added to terminate the kinase reaction and deplete any remaining ATP, leaving only ADP. Second, a detection reagent is added to simultaneously convert ADP to ATP and allow the newly synthesized ATP to be converted to light using a coupled luciferase/luciferin reaction.
(§3) Full length DGKA and Z were expressed in Sf21 insect cells by infecting the cells with the baculovirus stock at MOI of 2. Purification of both enzymes was performed as previously described by Takahashi et al., PeerJ, 2018 (Takahashi, D.; Sakane, F. Expression and purification of human diacylglycerolkinase alpha from baculovirus-infected insect cells for structural studies. PeerJ2018, 6, No. e5449).
(§4) A concentrated liposome solution was prepared in assay buffer without DTT and BSA: 2 mM of DLG in 21 mM of total liposome (2 mM DLG/8 mM PS/11 mM PC). The reaction mixtures contain the assay buffer with a final DLG concentration of 125 μM ATP concentrations of 25 μM (for DGKA assay) or 50 μM (for DGKZ assay). The reactions were started by addition of DGK α and ζ kinases at 4 nM and 2 nM final concentrations, respectively. After 1 hour reaction, the amount of ADP formed was detected with the ADP-Glo kinase assay (Promega) according to the manufacturer instructions. Compounds were added in 11I-points dose response, starting at 10 mM, 1:3 dilutions, with a final DMSO concentration of […]. The multidrop combi was used as a liquid handler and luminescence was read with 0.5 s by the envision reader (PE).

[3] = target: T2, hDGKzeta(1-928)-N-His (DGKZ) (Homo sapiens, UniProt Q13574); assay: In vitro DGK inhibition assay (ADP-Glo, in house), DGK zeta; assay type: biochemical; details: isomer A; 2 nM DGK ζ, 50 μM ATP, 125 μM DLG in liposomes, 1 hour reaction; read-out: DGKzeta ADP Glo assay IC50
T2 construct: hDGKzeta(1-928)-N-His; His (N)
T2 sequence (Q13574 whole entry): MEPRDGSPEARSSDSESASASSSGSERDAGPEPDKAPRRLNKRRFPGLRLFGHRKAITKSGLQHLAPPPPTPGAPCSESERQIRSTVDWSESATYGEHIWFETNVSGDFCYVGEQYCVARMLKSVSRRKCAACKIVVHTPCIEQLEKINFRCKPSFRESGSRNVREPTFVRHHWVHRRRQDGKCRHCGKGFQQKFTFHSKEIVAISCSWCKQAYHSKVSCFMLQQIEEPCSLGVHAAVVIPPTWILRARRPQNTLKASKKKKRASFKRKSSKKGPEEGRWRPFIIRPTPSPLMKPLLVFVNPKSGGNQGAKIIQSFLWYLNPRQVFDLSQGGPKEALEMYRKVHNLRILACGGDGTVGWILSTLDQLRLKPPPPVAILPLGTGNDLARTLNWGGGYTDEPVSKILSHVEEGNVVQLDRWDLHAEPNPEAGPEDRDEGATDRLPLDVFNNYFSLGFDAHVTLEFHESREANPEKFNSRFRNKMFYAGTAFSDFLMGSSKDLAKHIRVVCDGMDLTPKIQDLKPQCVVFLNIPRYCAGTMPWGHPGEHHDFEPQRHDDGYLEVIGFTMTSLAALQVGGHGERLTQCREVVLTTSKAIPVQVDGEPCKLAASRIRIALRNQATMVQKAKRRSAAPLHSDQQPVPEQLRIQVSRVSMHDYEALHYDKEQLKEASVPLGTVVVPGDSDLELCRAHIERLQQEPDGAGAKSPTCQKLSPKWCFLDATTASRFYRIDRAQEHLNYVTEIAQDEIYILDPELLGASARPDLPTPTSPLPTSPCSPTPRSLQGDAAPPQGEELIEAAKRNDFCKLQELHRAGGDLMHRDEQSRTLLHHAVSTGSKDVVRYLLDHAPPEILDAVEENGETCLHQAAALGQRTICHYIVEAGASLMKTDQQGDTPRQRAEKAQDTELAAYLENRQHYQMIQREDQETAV
Description: as §1, §2, §3, §4

[4] = target: DGK α kinase (Homo sapiens, UniProt P23743); assay: In vitro DGK inhibition assay (ADP Glo) run by Reaction Biology Corp., DGK alpha; assay type: biochemical; details: isomer A, 2 nM kinase, 50 μM ATP, 500 uM DLG, 10-dose, 3-fold dilution starting at 1 μM, read-out: DGKalpha IC50
DGK α kinase, sequence (P23743 whole entry): as the sequence (P23743 whole entry) above
Description: (§5) DGK α and ζ kinase use ATP to phosphorylate the substrate 1,2-dilauroyl-sn-glycerol (DLG). ATP is converted to ADP as a result of this enzymatic reaction.
as §2
(§6) DGK α and ζ kinase ADP Glo assays were ran by Reaction Biology Corp., 1 Great Valley Parkway, Suite 2, Malverm, 19355, PA, USA. Information provided by the service provider are the following: DGK α and ζ kinases were used at 2 nM final concentration. Reactions were carried out at 50 μM ATP. 500 uM of the substrate DLG (Dilauroyl-sn-glycerol) was used. Compounds were received at 10 mM DMSO stock solution and were tested in 10-dose IC50 duplicate with 3-fold serial dilution starting at 1 μM. A control compound, Calphostin C, was tested in 10-dose IC50 with 3-fold serial dilution starting at 100 μM.

[5] = target: DGK ζ kinase (Homo sapiens, UniProt Q13574); assay: In vitro DGK inhibition assay (ADP Glo) run by Reaction Biology Corp., DGK zeta; assay type: biochemical; details: isomer A, 2 nM kinase, 50 μM ATP, 500 uM DLG, 10-dose, 3-fold dilution starting at 1 μM, read-out: DGKzeta IC50
DGK ζ kinase, sequence (Q13574 whole entry): as the sequence (Q13574 whole entry) above
Description: as §5, §2, §6

| pIC50 [2] | pIC50 [3] | pIC50 [4] | pIC50 [5] | SMILES | pEC50 [1] | Emax [1] [%] |
| --- | --- | --- | --- | --- | --- | --- |
| 4.75 | 5.17 |  |  | CC(C)(C#N)c1nnc(-c2cc3c(cc2F)C(F)(F)C[C@@H](N)C(=O)N3Cc2ccc(-n3cc(C(F)(F)F)cn3)nc2)o1 (single isomer, unassigned) [Example 46] | 6.27 | 87 |
| 4.63 | 5.52 |  |  | CC(C)(C#N)c1nnc(-c2cc3c(cc2F)C(F)(F)C[C@@H](N)C(=O)N3Cc2ccc(-n3cc(C(F)(F)F)cn3)c(F)c2)o1 (single isomer, unassigned) [Example 47] | 6.30 | 98 |

More lines, now with the values behind:

| SMILES | pIC50 [2] | pIC50 [3] | pIC50 [4] | pIC50 [5] | pEC50 [1] | Emax [1] [%] |
| --- | --- | --- | --- | --- | --- | --- |
| CC(C)(C#N)c1nnc(-c2cc3c(cc2F)C(F)(F)C[C@@H](N)C(=O)N3Cc2ccc(-n3cc(C(F)(F)F)cn3)cc2F)o1 (single isomer, unassigned) [Example 44] |  |  |  |  | 5.84 | 126 |
| CC(C)(C)c1cncc(-c2cc3c(cc2F)C(F)(F)C[C@@H](N)C(=O)N3Cc2ccc(Cl)cc2)c1 (single isomer, unassigned) [Example 18] | < 4.20 | < 4.20 |  |  | 6.18 | 52 |
| CC(C)(C#N)c1nnc(-c2cc3c(cc2F)C(F)(F)C[C@@H](N)C(=O)N3Cc2ccc(-c3cnn(C(F)(F)F)c3)cc2)o1 (single isomer, unassigned) [Example 48] | 5.82 | 5.31 |  |  | 6.79 | 171 |
| CC(C)(C#N)c1nnc(-c2cc3c(cc2F)C(F)(F)C[C@@H](N)C(=O)N3Cc2ccc(-n3cc(OC(F)(F)F)cn3)cc2)o1 (single isomer, unassigned) [Example 43] |  |  |  |  | 7.63 | 105 |
| CC(C)(C#N)c1nnc(-c2cc3c(cc2F)C(F)(F)C[C@@H](N)C(=O)N3Cc2ccc(Oc3ccccc3)cc2)o1 (single isomer, unassigned) [Example 11] | 5.48 | 5.90 | 8.16 | 7.69 | 6.72 | 88 |
| CC(C)(C#N)c1nnc(-c2cc3c(cc2F)C(F)(F)C[C@@H](N)C(=O)N3Cc2ccc(-n3cc(C(F)(F)F)cn3)nc2F)o1 (single isomer, unassigned) [Example 45] |  |  |  |  | 5.53 | 67 |
